Experimental data as given in patent US6440935B1, “Inhibition of eucaryotic pathogens and neoplasms and stimulation of fibroblasts and lymphocytes with lytic peptides” (priority 1987, dated 2002).
“And” between values parts separate entries of the source, which are not always exact repeats. Identical values can stand only once. Like-named read-outs stand apart in the source and are kept apart here. Residues, ends and D or L forms follow the SMILES beside them.

Tests used:
[1] = Viability by trypan blue exclusion, normal lymphocytes; assay type: cell-based, human; conditions: 100 μM
Experimental: (§1) EL-4 lymphoma cells were suspended in RPMI 1640 at 5,000,000/ml with 500,000 cells per well. Various concentrations of cecropin SB-37 and Shiva 1 were added and the wells incubated at 37° C. in a 5% CO2 atmosphere for one hour. Viability was determined by microscopic observation for trypan blue exclusion.
(§2) The procedure of Example 5 was repeated with 50 and 200 μM cecropin SB-37 using SP2 mouse lymphoma cells, KG-1 human leukemia cells, Daudi human Burkitt's lymphoma cells, non-adherent normal human lymphocytes and adherent 3T3 […] fibroblasts. Viability was determined by microscopic observation for trypan blue exclusion.
(§3) This procedure was repeated with 100 μM cecropin SB-37 using non-adherent normal human lymphocytes, Daudi human Burkitt's lymphoma cells, KG-1 human leukemia cells, U937 human monocytic leukemia cells, and SP2 murine myeloma cells, and determining viability by the trypan blue exclusion method at 15, 30 and 60 minutes following addition of the peptide.

[2] = system: Pseudomonas solanacearum
[3] = S. intermedius 19930 viability in lytic peptide/lysozyme; conditions: Viability (%), lysozyme at ten times
[4] = Viability by trypan blue exclusion, U937 cells; assay type: cell-based, human
Experimental: as §1, §3

[5] = Viability by trypan blue exclusion, KG-1 cells; assay type: cell-based, human; conditions: 100 μM
Experimental: as §1, §2, §3

[6] = system: KG-1 human leukemia cells; assay: Viability by trypan blue exclusion, KG-1 cells; assay type: cell-based
Experimental: as §1, §2, §3

[7] = EL-4 cytotoxicity by chromium release; assay type: cell-based; conditions: for cytotoxicity at 100 µM: read-out: Percent Cytotoxicity
Experimental: (§4) The EL-4 cells were then incubated for 30 minutes in the presence of various peptides at different concentrations. Cytotoxicity was taken as a percentage of chromium released (measured in the culture supernatant) relative to the chromium released by EL-4 cells lysed by detergent.
(§5) Similar chromium release data were obtained using the same procedure with a 100 μM concentration of peptide, but with EL-4 cell concentrations of 2×10^6, 10^6, and 5×10^5 cells in 0.5 ml medium.
(§6) The chromium release data was also obtained by using the supernatant from unlabeled EL-4 cells cultured for 30 minutes in the presence of 100 μM peptide as medium for […] EL-4 cultured as described above. The percent cytotoxicity calculated as described above was 20.16 for cecropin SB-37, 19.73 for *cecropin SB-37, 41.96 for Shiva 1, and 106.67 for melittin.

[8] = system: EL-4 cells; assay: EL-4 cytotoxicity by chromium release; assay type: cell-based; conditions: 30 minutes, 10^6 EL-4 cells
Experimental: as §4, §5, §6

[9] = system: Daudi human Burkitt's lymphoma cells; assay: Viability by trypan blue exclusion, Daudi cells; assay type: cell-based
Experimental: as §1, §2, §3

[10] = Viability by trypan blue exclusion, Daudi cells; assay type: cell-based, human; conditions: 100 μM
Experimental: as §1, §2, §3

[11] = In vivo screening on mice; parameters: species or system BALB/C mice; conditions: for WBC Count: 110 mg/kg per day i.m. for 6 days, Mouse 1, 2, 3
Experimental: Nine BALB/C mice, 4 to 5 weeks of age, maintained on commercial rodent ration fed ad libidum and in general good health were each inoculated with 1.76 mg/day of cecropin SB-37 in PBS intramuscularly for 4 consecutive days. No other change was made in diet or conditions. […] At the end of the fourth day, three were sacrificed and examined. After 30 days, three were given an additional 1.76 mg of cecropin SB-37 each.
The remaining mice were all sacrificed 7 days after the last inoculation.
Following the above procedure, three BALB/C mice were given 110 mg/kg of body weight per day of cecropin SB-37 injected intramuscularly in balanced salt solution for 6 days. Ten days after the last inoculation, the mice were again injected intramuscularly with 110 mg/kg of body weight with cecropin SB-37. […] All three mice were sacrificed 7 days after the final inoculation and tissues were examined.

[12] = system: Erwinia caratovora subsp. carotova; assay: Plant pathogen LD50 in cecropin SB-37/lysozyme; assay type: cell-based; conditions: incubation at 30° C.
[13] = EL-4 cell viability by trypan blue exclusion; assay type: cell-based; conditions: one hour, 95% at 0 μM
Experimental: as §1

[14] = system: T. cruzi intracellular amastigotes in Vero cells; assay: In vitro effect on T. cruzi intracellular amastigotes in Vero cells; assay type: cell-based, Trypanosoma cruzi; conditions: one hour period, relative to no peptide
Experimental: Vero cells at 10^5 cells/ml in MEM-FBS were mixed with Trypanosoma Cruzi in the trypomastigote stage at 10^5 cells/ml in the same medium at a 1:1 ratio of Vero cells to trypomastigotes. The mixture of Vero cells and trypomastigotes was cultured at 37° C. in a 5% CO2 atmosphere in microscope slide chambers. At 24 hours, cecropin SB-37 was added to the chambers, except for a set of controls, at a final concentration of 100 μM. […]

[15] = system: Pseudomonas syringae pv. tabaci; assay: Plant pathogen LD50 in cecropin SB-37/lysozyme; assay type: cell-based; conditions: incubation at 30° C.
[16] = system: adherent 3T3 human fibroblasts; assay: Viability by trypan blue exclusion, 3T3 fibroblasts; assay type: cell-based
[17] = system: Plasmodium falciparum in human red blood cells; conditions: 24-hour period, relative to untreated infected red blood cells

CC[C@H](C)[C@H](NC(=O)CNC(=O)[C@H](CC(N)=O)NC(=O)[C@H](CCCNC(=N)N)NC(=O)[C@@H](NC(=O)[C@H](CC(N)=O)NC(=O)[C@H](CCCNC(=N)N)NC(=O)CNC(=O)[C@H](CCSC)NC(=O)[C@H](CCCCN)NC(=O)[C@H](CCC(=O)O)NC(=O)[C@@H](NC(=O)[C@H](CCCCN)NC(=O)[C@H](CCCCN)NC(=O)[C@H](Cc1ccccc1)NC(=O)[C@@H](NC(=O)[C@H](CCCCN)NC(=O)[C@H](Cc1c[nH]c2ccccc12)NC(=O)[C@H](CCCCN)NC(=O)[C@@H]1CCCN1C(=O)[C@@H](N)CCSC)C(C)C)[C@@H](C)CC)[C@@H](C)CC)C(=O)N[C@H](C(=O)N[C@@H](CCCCN)C(=O)N[C@@H](C)C(=O)NCC(=O)N1CCC[C@H]1C(=O)N[C@@H](C)C(=O)N[C@H](C(=O)N[C@@H](C)C(=O)N[C@H](C(=O)N[C@@H](CC(C)C)C(=O)NCC(=O)N[C@@H](CCC(=O)O)C(=O)N[C@@H](C)C(=O)N[C@@H](CCCCN)C(=O)N[C@@H](C)C(=O)N[C@@H](CC(C)C)C(=O)NCC(N)=O)C(C)C)[C@@H](C)CC)C(C)C [Cecropin SB-37] (H-MPKWKVFKKIEKMGRNIRNGIVKAGPAIAVLGEAKALG-NH2)
viability at 100 µM ([1]; 15 min.): 75%
viability at 100 µM ([1]; 30 min.): 80%
viability at 100 µM ([1]; 60 min.): 85%
LD50 [2]: 64.0 µM
viability at 0.01 µM ([3]; peptide concentration 0.01 μM): 100%
viability at 0.1 µM ([3]; peptide concentration 0.1 μM): 94.7%
viability at 0.5 µM ([3]; peptide concentration 0.5 μM): 69.4%
viability at 1 µM ([3]; peptide concentration 1.0 μM): 42.5%
viability at 5 µM ([3]; peptide concentration 5.0 μM): 36.1%
viability ([3]; peptide concentration 10. μM): 5.6%
viability ([3]; peptide concentration 50. μM): 0%
viability at 100 µM ([4]; 15 min.): 35%
viability at 100 µM ([4]; 30 min.): 25%
viability at 100 µM ([4]; 60 min.): 15%
viability at 100 µM ([5]; 15 min.): 50%
viability at 100 µM ([5]; 30 min.): 75%
viability at 100 µM ([5]; 60 min.): 50%
Survival (percent) ([6]; 50 μM): 95%
Survival (percent) ([6]; 100 μM): 0%
cytotoxicity at 100 µM ([7]; 2 × 10^6 cells per 0.5 ml): 93.8%
cytotoxicity at 100 µM ([7]; 5 × 10^5 cells per 0.5 ml): 99.6%
cytotoxicity at 100 µM ([7]; 10^6 cells per 0.5 ml): 89.2%
cytotoxicity ([7]; supernatant from unlabeled EL-4 cells cultured 30 minutes with 100 μM peptide used as medium for labeled EL-4, read-out: percent cytotoxicity): 20.2%
Percent Cytotoxicity (chromium release vs detergent-lysed cells) ([8]; 10 μM): 0.0%
Percent Cytotoxicity (chromium release vs detergent-lysed cells) ([8]; 25 μM): 4.49%
Percent Cytotoxicity (chromium release vs detergent-lysed cells) ([8]; 50 μM): 6.63%
Percent Cytotoxicity (chromium release vs detergent-lysed cells) ([8]; 100 μM): 36.42%
Survival (percent) ([9]; 50 μM): 85%
Survival (percent) ([9]; 100 μM): 0%
viability at 100 µM ([10]; 15 min.): 70%
viability at 100 µM ([10]; 30 min.): 70%
viability at 100 µM ([10]; 60 min.): 65%
adverse reactions ([11]; 1.76 mg/day intramuscularly, 4 consecutive days, observed twice daily): no adverse reactions were noted
antibody to cecropin SB-37 ([11]; 1.76 mg/day regimen): None of these mice produced detectable levels of antibody
examination of organs and tissues ([11]; 1.76 mg/day regimen, sacrificed 7 days after the last inoculation): no gross pathological changes were present
WBC Count ([11]; Day 1): 13 10^3/ml and 9 10^3/ml
WBC Count ([11]; Day 3): 14 10^3/ml and 9 10^3/ml and 10 10^3/ml
WBC Count ([11]; Day 5): 15 10^3/ml and 19 10^3/ml
WBC Count ([11]; Day 8): 21 10^3/ml
WBC Count ([11]; Day 11): 23 10^3/ml and 20 10^3/ml
adverse effects ([11]; 110 mg/kg per day intramuscularly for 6 days, again ten days later): no adverse effects
cecropin SB-37 antibodies ([11]; 110 mg/kg regimen): No cecropin SB-37 antibodies were detected
examination of tissues ([11]; 110 mg/kg regimen, sacrificed 7 days after the final inoculation): enlarged spleens but were otherwise unremarkable
adverse reactions ([11]; additional 1.76 mg after 30 days): No adverse reactions were noted
LD50 [12]: 1.48 µM
viability: 0%
viability at 0.01 µM: 100%
viability at 0.1 µM: 79.4%
viability at 1 µM: 48.8%
viability at 5 µM: 38.5%
viability at 7.5 µM: 0.7%
viability ([13]; 10 μM): 90%
viability ([13]; 25 μM): 90%
viability ([13]; 50 μM): 75%
viability ([13]; 100 μM): 20%
LD50 (concentration for 50% reduction in number of infected Vero cells) [14]: about 90 μM
LD50 [15]: 5.20 µM
Survival (percent) ([16]; 50 μM): 80%
Survival (percent) ([16]; 100 μM): 80%
LD50 (concentration for 50% reduction in 3H-hypoxanthine uptake) [17]: about 22.5 μM
